From US20260060250A1, “HERBICIDAL PYRIDONE DERIVATIVES” (SYNGENTA CROP PROTECTION AG, priority 2022, published 2026)

What was measured:
Assay type in all cases: in vivo
Settings in all cases: evaluated after 13 days
[1] = system: Amaranthus palmeri (AMAPA); assay: Pre-emergence Test (Table B1); parameters: key: 5=81-100%; 4=61-80%; 3=41-60%; 2=21-40%; 1=0-20%; 0=inactive
Setaria faberi (SETFA) [2] = assay: Pre-emergence Test (Table B1); parameters: key: 5=81-100%; 4=61-80%; 3=41-60%; 2=21-40%; 1=0-20%; 0=inactive
[3] = system: Echinochloa crus-galli (ECHCG); assay: Pre-emergence Test (Table B1); parameters: key: 5=81-100%; 4=61-80%; 3=41-60%; 2=21-40%; 1=0-20%; 0=inactive
[4] = system: Amaranthus retroflexus (AMARE); assay: Pre-emergence Test (Table B1)
Zea mays (ZEAMX) [5] = assay: Pre-emergence Test (Table B1); parameters: key: 5=81-100%; 4=61-80%; 3=41-60%; 2=21-40%; 1=0-20%; 0=inactive
[6] = system: Ipomoea hederacea (IPOHE); assay: Pre-emergence Test (Table B1); parameters: key: 5=81-100%; 4=61-80%; 3=41-60%; 2=21-40%; 1=0-20%; 0=inactive
[7] = system: Amaranthus palmeri (AMAPA); assay: Post-emergence Test (Table B2)
Procedure: (§1) Seeds of a variety of test species are sown in standard soil in pots (Amaranthus palmeri (AMAPA), Setaria faberi (SETFA), Echinochloa crus-galli (ECHCG), (Amaranthus retroflexus (AMARE), Zea mays (ZEAMX), Ipomoea hederacea (IPOHE)). After 8 days cultivation under controlled conditions in a glasshouse (at 24° C./16° C., day/night; 14 hours light; 65% humidity), the plants are sprayed with an aqueous spray solution derived from the formulation of the technical active ingredient in acetone/water (50:50) solution containing 0.5% Tween 20 (polyoxyethelyene sorbitan monolaurate, CAS RN 9005-64-5). Compounds are applied at 1000 g/ha unless otherwise stated. The test plants are then grown in a glasshouse under controlled conditions in a glasshouse (at 24° C./16° C., day/night; 14 hours light; 65% humidity) and watered twice daily. After 13 days the test is evaluated for the percentage damage caused to the plant.

[8] = system: Amaranthus retroflexus (AMARE); assay: Post-emergence Test (Table B2)
Procedure: as §1

Setaria faberi (SETFA) [9] = assay: Post-emergence Test (Table B2)
Procedure: as §1

[10] = system: Echinochloa crus-galli (ECHCG); assay: Post-emergence Test (Table B2)
Procedure: as §1

[11] = system: Ipomoea hederacea (IPOHE); assay: Post-emergence Test (Table B2)
Procedure: as §1

Zea mays (ZEAMX) [12] = assay: Post-emergence Test (Table B2)
Procedure: as §1

[13] = lower rate of 250 g per hectare

Row | Compound | percentage damage caused to the plant, AMAPA ([1]; 1000 g/ha) | percentage damage caused to the plant, SETFA (Setaria faberi (SETFA) [2]; 1000 g/ha) | percentage damage caused to the plant, ECHCG ([3]; 1000 g/ha) | percentage damage caused to the plant, AMARE ([4]; 1000 g/ha) | percentage damage caused to the plant, ZEAMX (Zea mays (ZEAMX) [5]; 1000 g/ha) | percentage damage caused to the plant, IPOHE ([6]; 1000 g/ha) | percentage damage caused to the plant, AMAPA ([7]; 1000 g/ha) | percentage damage caused to the plant, AMARE ([8]; 1000 g/ha) | percentage damage caused to the plant, SETFA (Setaria faberi (SETFA) [9]; 1000 g/ha) | percentage damage caused to the plant, ECHCG ([10]; 1000 g/ha) | percentage damage caused to the plant, IPOHE ([11]; 1000 g/ha) | percentage damage caused to the plant, ZEAMX (Zea mays (ZEAMX) [12]; 1000 g/ha) | percentage damage caused to the plant, AMAPA [1, 13] | percentage damage caused to the plant, SETFA (Setaria faberi (SETFA) [2]; [13]) | percentage damage caused to the plant, ECHCG [3, 13] | percentage damage caused to the plant, AMARE [4, 13] | percentage damage caused to the plant, ZEAMX (Zea mays (ZEAMX) [5]; [13]) | percentage damage caused to the plant, IPOHE [6, 13] | percentage damage caused to the plant, AMAPA [7, 13] | percentage damage caused to the plant, AMARE [8, 13] | also measured
1 | C=CC(C)OC(=O)c1cc(-c2c(C)n(CC)c(-c3ccc(Cl)c(Cl)c3)c(C(=O)O)c2=O)c(F)cc1Cl (stereo not drawn) [Compound 21, 5-[4-chloro-2-fluoro-5-(1-methylallyloxycarbonyl)phenyl]-2-(3,4-dichlorophenyl)-1-ethyl-6-methyl-4-oxo-pyridine-3-carboxylic acid] | 5 (5=81-100%) | 2 (2=21-40%) | 4 (4=61-80%) | 5 (5=81-100%) | 0 | 3 (3=41-60%) | 5 (5=81-100%) | 5 (5=81-100%) | 3 (3=41-60%) | 4 (4=61-80%) | 3 (3=41-60%) | 2 (2=21-40%) |  |  |  |  |  |  |  |  | 
2 | CC#CC(C)OC(=O)c1cc(-c2c(C)n(CC)c(-c3ccc(Cl)c(Cl)c3)c(C(=O)O)c2=O)c(F)cc1Cl (stereo not drawn) [Compound 22, 5-[4-chloro-2-fluoro-5-(1-methylbut-2-ynoxycarbonyl)phenyl]-2-(3,4-dichlorophenyl)-1-ethyl-6-methyl-4-oxo-pyridine-3-carboxylic acid] |  |  |  |  |  |  |  |  |  |  |  |  | 5 (5=81-100%) | 1 (1=0-20%) | 1 (1=0-20%) | 5 (5=81-100%) | 1 (1=0-20%) | 1 (1=0-20%) | 5 (5=81-100%) | 5 (5=81-100%) | percentage damage caused to the plant, SETFA (Setaria faberi (SETFA) [9]; [13]): 5 (5=81-100%); percentage damage caused to the plant, ECHCG [10, 13]: 5 (5=81-100%); percentage damage caused to the plant, IPOHE [11, 13]: 5 (5=81-100%); percentage damage caused to the plant, ZEAMX (Zea mays (ZEAMX) [12]; [13]): 3 (3=41-60%)
3 | CCn1c(C)c(-c2cc(C(=O)OC3CCC3)c(Cl)cc2F)c(=O)c(C(=O)O)c1-c1ccc(Cl)c(Cl)c1 [Compound 23, 5-[4-chloro-5-(cyclobutoxycarbonyl)-2-fluoro-phenyl]-2-(3,4-dichlorophenyl)-1-ethyl-6-methyl-4-oxo-pyridine-3-carboxylic acid] | 5 (5=81-100%) | 5 (5=81-100%) | 5 (5=81-100%) | 5 (5=81-100%) | 2 (2=21-40%) | 4 (4=61-80%) | 5 (5=81-100%) | 5 (5=81-100%) | 5 (5=81-100%) | 4 (4=61-80%) | 2 (2=21-40%) | 2 (2=21-40%) |  |  |  |  |  |  |  |  | 
4 | CCn1c(C)c(-c2cc(C(=O)OC3CCCC3)c(Cl)cc2F)c(=O)c(C(=O)O)c1-c1ccc(Cl)c(Cl)c1 [Compound 24, 5-[4-chloro-5-(cyclopentoxycarbonyl)-2-fluoro-phenyl]-2-(3,4-dichlorophenyl)-1-ethyl-6-methyl-4-oxo-pyridine-3-carboxylic acid] | 5 (5=81-100%) | 1 (1=0-20%) | 1 (1=0-20%) | 5 (5=81-100%) | 0 | 3 (3=41-60%) | 5 (5=81-100%) | 5 (5=81-100%) | 5 (5=81-100%) | 5 (5=81-100%) | 4 (4=61-80%) | 3 (3=41-60%) |  |  |  |  |  |  |  |  | 
5 | CCn1c(C)c(-c2cc(C(=O)OC(C)COC)c(Cl)cc2F)c(=O)c(C(=O)O)c1-c1ccc(Cl)c(Cl)c1 (stereo not drawn) [Compound 26, 5-[4-chloro-2-fluoro-5-(2-methoxy-1-methyl-ethoxy)carbonyl-phenyl]-2-(3,4-dichlorophenyl)-1-ethyl-6-methyl-4-oxo-pyridine-3-carboxylic acid] | 5 (5=81-100%) | 4 (4=61-80%) | 4 (4=61-80%) | 5 (5=81-100%) | 0 | 3 (3=41-60%) | 5 (5=81-100%) | 5 (5=81-100%) | 5 (5=81-100%) | 5 (5=81-100%) | 5 (5=81-100%) | 5 (5=81-100%) |  |  |  |  |  |  |  |  | 
6 | CCn1c(C)c(-c2cc(C(=O)OC3CC3)c(Cl)cc2F)c(=O)c(C(=O)O)c1-c1ccc(C#N)c(F)c1 [Compound 39, 5-[4-chloro-5-(cyclopropoxycarbonyl)-2-fluoro-phenyl]-2-(4-cyano-3-fluoro-phenyl)-1-ethyl-6-methyl-4-oxo-pyridine-3-carboxylic acid] |  |  |  |  |  |  |  |  |  |  |  |  | 5 (5=81-100%) | 0 | 0 | 5 (5=81-100%) | 0 | 4 (4=61-80%) | 5 (5=81-100%) | 5 (5=81-100%) | percentage damage caused to the plant, SETFA (Setaria faberi (SETFA) [9]; [13]): 5 (5=81-100%); percentage damage caused to the plant, ECHCG [10, 13]: 4 (4=61-80%); percentage damage caused to the plant, IPOHE [11, 13]: 4 (4=61-80%); percentage damage caused to the plant, ZEAMX (Zea mays (ZEAMX) [12]; [13]): 5 (5=81-100%)
7 | CCn1c(C)c(-c2cc(C(=O)OC(C)CC(=O)OC)c(Cl)cc2F)c(=O)c(C(=O)O)c1-c1ccc(Cl)c(Cl)c1 (stereo not drawn) [Compound 42, 5-[4-chloro-2-fluoro-5-(3-methoxy-1-methyl-3-oxo-propoxy)carbonyl-phenyl]-2-(3,4-dichlorophenyl)-1-ethyl-6-methyl-4-oxo-pyridine-3-carboxylic acid] |  |  |  |  |  |  |  |  |  |  |  |  | 1 (1=0-20%) | 0 | 0 | 3 (3=41-60%) | 1 (1=0-20%) | 0 | 4 (4=61-80%) | 5 (5=81-100%) | percentage damage caused to the plant, SETFA (Setaria faberi (SETFA) [9]; [13]): 2 (2=21-40%); percentage damage caused to the plant, ECHCG [10, 13]: 2 (2=21-40%); percentage damage caused to the plant, IPOHE [11, 13]: 3 (3=41-60%); percentage damage caused to the plant, ZEAMX (Zea mays (ZEAMX) [12]; [13]): 3 (3=41-60%)
8 | C#CCC(C)OC(=O)c1cc(-c2c(C)n(CC)c(-c3ccc(Cl)c(Cl)c3)c(C(=O)O)c2=O)c(F)cc1Cl (stereo not drawn) [Compound 43, 5-[4-chloro-2-fluoro-5-(1-methylbut-3-ynoxycarbonyl)phenyl]-2-(3,4-dichlorophenyl)-1-ethyl-6-methyl-4-oxo-pyridine-3-carboxylic acid] |  |  |  |  |  |  |  |  |  |  |  |  | 0 | 0 | 0 | 2 (2=21-40%) | 0 | 0 | 5 (5=81-100%) | 5 (5=81-100%) | percentage damage caused to the plant, SETFA (Setaria faberi (SETFA) [9]; [13]): 3 (3=41-60%); percentage damage caused to the plant, ECHCG [10, 13]: 4 (4=61-80%); percentage damage caused to the plant, IPOHE [11, 13]: 2 (2=21-40%); percentage damage caused to the plant, ZEAMX (Zea mays (ZEAMX) [12]; [13]): 4 (4=61-80%)
